# Assay results: ChEMBL document CHEMBL1201862, “PubChem BioAssay data set” (2004)
# Calls of active or inactive are those of the source.
# Assays:
# Orexin receptor type 2 [1] = biological target: T1, Orexin receptor type 2 (Homo sapiens, UniProt O43614); test: Counterscreen assay for antagonists of the orexin 1 receptor (OX1R; HCRTR1): Fluorescence-based cell-based dose response assay for antagonists of the orexin 2 receptor (OX2R; HCRTR2), run by assay provider.; type: functional
# [2] = biological target: T2, Orexin/Hypocretin receptor type 1 (Homo sapiens, UniProt O43613); test: (§1) Fluorescence-based cell-based high throughput dose response assay for antagonists of the orexin 1 receptor (OX1R; HCRTR1). [Related pubchem assays (depositor defined):AID434989, AID435008, AID463079, AID485270, AID492963, AID492964, AID492965, AID493232, AID504717, AID504718]; type: functional
# T2 sequence (O43613 whole entry): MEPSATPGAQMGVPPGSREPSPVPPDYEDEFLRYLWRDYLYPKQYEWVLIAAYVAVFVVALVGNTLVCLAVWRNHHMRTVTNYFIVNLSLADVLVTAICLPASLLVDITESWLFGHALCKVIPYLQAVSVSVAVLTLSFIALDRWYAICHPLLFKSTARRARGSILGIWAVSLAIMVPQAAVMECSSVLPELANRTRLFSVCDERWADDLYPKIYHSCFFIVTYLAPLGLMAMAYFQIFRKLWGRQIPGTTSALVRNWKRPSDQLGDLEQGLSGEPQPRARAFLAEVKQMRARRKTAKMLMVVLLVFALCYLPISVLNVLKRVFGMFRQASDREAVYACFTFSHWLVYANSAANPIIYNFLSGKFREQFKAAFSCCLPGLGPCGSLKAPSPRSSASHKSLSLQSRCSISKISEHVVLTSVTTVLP
# Orexin receptor type 2 [3] = biological target: T1, Orexin receptor type 2; test: Counterscreen assay for antagonists of the orexin 1 receptor (OX1R; HCRTR1): Homogeneous Time Resolved Fluorescence (HTRF)-based cell-based dose response assay for antagonists of the orexin 2 receptor (OX2R; HCRTR2), run by assay provider.; type: functional
# [4] = luciferase reporter signal suppression in cells – H4 neuroglioma cells, luminescence, dose response (AID 1990); type: functional, cell-based
# [5] = (§2) Counterscreen for antagonists of the orexin 1 receptor (OX1R; HCRTR1): Fluorescence-based cell-based high throughput dose response assay to identify antagonists of the parental CHO cell line. [Related pubchem assays (depositor defined):AID434989, AID435008, AID463079, AID485270, AID492963, AID492964, AID492965, AID493232, AID504699, AID504701]; type: functional
# CHO-K1 = test: as §2, with “Homogeneous time resolved fluorescence (HTRF)-based” for “Fluorescence-based”, “cell-based” for “cell-based high throughput”, “CHO-K1” for “CHO”; type: functional; conditions: Cricetulus griseus;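 note: potency for inhibition of ATP-stimulated IP1 production as antagonists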
# [6] = biological target: T2, Orexin/Hypocretin receptor type 1; test: as §1, with “Homogeneous Time Resolved Fluorescence (HTRF)-based” for “Fluorescence-based”; type: functional
# [7] = Luminescence Cell-Based Dose Response HTS to Identify Inhibitors of 5'UTR Stem-Loop Driven Prion Protein mRNA Translation in H4 Neuroglioblastoma Cells. [Related pubchem assays: 1827 (Project Summary), 1813 (Primary HTS)]; type: functional
# [8] = alpha-synuclein stem-loop luciferase translation blockers – H4 neuroglioma cells, luminescence, confirmation (AID 1988); type: functional, cell-based
# [9] = biological target: T3, Sphingosine 1-phosphate receptor 4 (Homo sapiens, UniProt O95977); test: Fluorescence dose response cell-based high throughput screening assay for antagonists of the Sphingosine 1-Phosphate Receptor 4 (S1P4). [Related pubchem assays: 1524 (Confirmation in triplicates.), 1510 (Primary screen.)]; type: functional
# T3 sequence (O95977 whole entry): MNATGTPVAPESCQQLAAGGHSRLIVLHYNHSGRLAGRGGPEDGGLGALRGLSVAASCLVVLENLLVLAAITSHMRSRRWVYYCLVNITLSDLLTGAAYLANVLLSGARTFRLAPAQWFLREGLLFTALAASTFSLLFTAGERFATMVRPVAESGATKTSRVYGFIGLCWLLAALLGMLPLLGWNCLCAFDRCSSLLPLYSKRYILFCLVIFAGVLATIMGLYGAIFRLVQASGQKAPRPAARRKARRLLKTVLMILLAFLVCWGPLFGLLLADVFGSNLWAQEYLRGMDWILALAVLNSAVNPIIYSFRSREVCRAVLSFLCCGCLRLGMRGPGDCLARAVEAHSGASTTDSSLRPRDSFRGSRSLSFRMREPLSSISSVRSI
# HEK293 [10] = test: HEK293T cell viability loss, resazurin readout – resazurin fluorescence, cytotoxicity control for NF-kB activator project, SAR follow-up (AID 493251); type: functional, cell-based; conditions: Homo sapiens
# [11] = biological target: T4, Delta-type opioid receptor (Homo sapiens, UniProt P41143); test: HTS Image-Based Screen for Agonists of the DOR Receptor. [Related pubchem assays (depositor defined):AID1777, AID1786, AID2133]; type: functional
# T4 sequence (P41143 whole entry): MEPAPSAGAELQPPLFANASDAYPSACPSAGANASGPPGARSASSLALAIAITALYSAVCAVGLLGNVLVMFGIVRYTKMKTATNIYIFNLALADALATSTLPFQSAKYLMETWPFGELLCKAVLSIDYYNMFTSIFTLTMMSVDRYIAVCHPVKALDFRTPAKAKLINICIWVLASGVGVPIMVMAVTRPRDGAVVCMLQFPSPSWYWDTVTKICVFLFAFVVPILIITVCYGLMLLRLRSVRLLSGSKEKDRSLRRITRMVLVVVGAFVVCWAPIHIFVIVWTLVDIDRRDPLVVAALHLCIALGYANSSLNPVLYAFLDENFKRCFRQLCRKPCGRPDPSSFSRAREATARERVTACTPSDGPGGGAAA
# Beta-galactosidase [12] = biological target: T5, Beta-galactosidase (Escherichia coli, UniProt Q8VNN2); test: PubChem AID 485352; type: functional
# T5 sequence (Q8VNN2 whole entry): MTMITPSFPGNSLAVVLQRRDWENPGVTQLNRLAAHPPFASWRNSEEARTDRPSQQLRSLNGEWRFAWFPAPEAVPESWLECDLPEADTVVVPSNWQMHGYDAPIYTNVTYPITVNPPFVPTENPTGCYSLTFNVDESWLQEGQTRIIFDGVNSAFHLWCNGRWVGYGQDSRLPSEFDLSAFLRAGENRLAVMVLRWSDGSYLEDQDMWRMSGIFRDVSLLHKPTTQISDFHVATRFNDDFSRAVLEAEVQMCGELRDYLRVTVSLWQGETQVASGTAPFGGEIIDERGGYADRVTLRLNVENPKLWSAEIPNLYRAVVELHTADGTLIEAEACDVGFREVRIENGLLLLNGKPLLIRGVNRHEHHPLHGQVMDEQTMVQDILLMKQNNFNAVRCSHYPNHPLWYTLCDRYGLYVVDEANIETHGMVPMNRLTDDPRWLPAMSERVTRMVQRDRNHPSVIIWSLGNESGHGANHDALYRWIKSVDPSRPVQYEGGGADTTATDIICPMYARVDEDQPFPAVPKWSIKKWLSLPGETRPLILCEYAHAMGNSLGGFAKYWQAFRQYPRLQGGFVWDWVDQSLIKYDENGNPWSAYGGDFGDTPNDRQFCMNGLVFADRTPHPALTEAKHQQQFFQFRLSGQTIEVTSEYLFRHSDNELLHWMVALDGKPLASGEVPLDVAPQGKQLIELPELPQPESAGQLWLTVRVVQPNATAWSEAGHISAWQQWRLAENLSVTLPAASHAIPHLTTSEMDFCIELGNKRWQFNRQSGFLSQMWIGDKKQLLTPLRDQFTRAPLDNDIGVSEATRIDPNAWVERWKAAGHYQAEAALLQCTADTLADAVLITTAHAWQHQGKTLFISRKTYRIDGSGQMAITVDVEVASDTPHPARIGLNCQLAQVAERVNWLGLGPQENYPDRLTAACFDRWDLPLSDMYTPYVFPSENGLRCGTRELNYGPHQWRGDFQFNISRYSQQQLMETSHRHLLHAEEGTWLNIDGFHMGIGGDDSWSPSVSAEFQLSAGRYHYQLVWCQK
# [13] = Luminescence-based dose response cell-based high throughput screening assay for cytotoxic compounds using the IEC-6 intestinal epithelial cell line. [Related pubchem assays: 1858 (Summary AID.), 1825 (Counterscreen.), 1907 (Confirmation screen.)]; type: functional
# [14] = biological target: T6, Microphthalmia-associated transcription factor (Homo sapiens, UniProt O75030); test: reducers of TRPM1 reporter luminescence, concentration series – cell-based, SK-MEL-5, cherry-picked, set 3, MITF inhibitor project, dose response (AID 493073); type: functional;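 note: SK-MEL-5 melanoma cells with luciferase driven by the MITF target TRPM1 promoter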
# T6 sequence (O75030 whole entry): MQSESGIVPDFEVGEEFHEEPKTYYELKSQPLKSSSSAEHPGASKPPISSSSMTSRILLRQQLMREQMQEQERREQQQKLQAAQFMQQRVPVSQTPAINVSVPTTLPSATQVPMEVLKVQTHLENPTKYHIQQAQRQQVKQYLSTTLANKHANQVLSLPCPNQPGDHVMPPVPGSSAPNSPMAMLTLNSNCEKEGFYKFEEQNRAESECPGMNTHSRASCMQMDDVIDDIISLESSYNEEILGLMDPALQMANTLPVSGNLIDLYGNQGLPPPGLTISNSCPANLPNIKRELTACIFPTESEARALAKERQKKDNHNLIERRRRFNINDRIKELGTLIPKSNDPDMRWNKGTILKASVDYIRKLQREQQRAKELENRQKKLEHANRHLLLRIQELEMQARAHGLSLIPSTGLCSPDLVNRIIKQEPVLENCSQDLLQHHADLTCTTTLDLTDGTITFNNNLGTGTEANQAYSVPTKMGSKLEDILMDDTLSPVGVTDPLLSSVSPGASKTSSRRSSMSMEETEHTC
# A-375 [15] = test: proliferation inhibition in MITF-low A375 cells – cell-based, cherry-pick samples, set 2, counter-screen for MITF modulator project, dose response (AID 540335); type: functional; conditions: Homo sapiens
# [16] = viability of PTEN-deleted HCT116 cells – cell-based, HCT116 PTEN knockout, dose response (AID 1047); type: functional;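 note: HCT116 colon tumor cells with PTEN knocked out; cells exposed to compound for 60 hours before readout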
# Beta-galactosidase [17] = biological target: T5, Beta-galactosidase; type: functional
# [18] = biological target: Sphingosine 1-phosphate receptor 1 (Homo sapiens, UniProt P21453); type: functional;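 note: Tango beta-arrestin reporter U2OS cells stimulated with S1P near its EC80; inhibitor potency meaning antagonism of receptor activation by the natural agonist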
# Chain of Sphingosine 1-phosphate receptor 1 (P21453 whole entry): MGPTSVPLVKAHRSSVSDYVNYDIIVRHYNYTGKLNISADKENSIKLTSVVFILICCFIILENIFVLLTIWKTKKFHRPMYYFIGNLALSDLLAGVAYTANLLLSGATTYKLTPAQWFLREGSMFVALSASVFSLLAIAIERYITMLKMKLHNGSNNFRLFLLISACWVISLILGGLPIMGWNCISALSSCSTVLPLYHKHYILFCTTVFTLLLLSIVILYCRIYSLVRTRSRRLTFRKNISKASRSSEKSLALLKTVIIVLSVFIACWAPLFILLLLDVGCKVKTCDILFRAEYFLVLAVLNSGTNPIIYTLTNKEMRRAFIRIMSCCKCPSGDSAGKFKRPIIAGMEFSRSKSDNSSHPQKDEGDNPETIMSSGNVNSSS
# [19] = biological target: T4, Delta-type opioid receptor; test: HTS Image-Based Screen for Antagonists of the DOR Receptor. [Related pubchem assays (depositor defined):AID1777, AID1785, AID1786, AID2133]; type: functional
# Jurkat = test: SAR Analysis of small molecule inhibitors of both B-cell and T-cell specific antigen receptor-induced NF-kB activation in a Jurkat cell line using a luminescence assay. [Related pubchem assays (depositor defined):AID435003, AID435022, AID465, AID489029]; type: functional, cell-based; conditions: Homo sapiens
# [20] = biological target: T7, Type-1 angiotensin II receptor (Homo sapiens, UniProt P30556); test: antagonism of angiotensin II type 1 receptor – cell-based, uHTS hits, selectivity assay for APJ receptor antagonist project, dose response (AID 463214); type: functional;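 note: antagonist potency against angiotensin II stimulated AT1 response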
# T7 sequence (P30556 whole entry): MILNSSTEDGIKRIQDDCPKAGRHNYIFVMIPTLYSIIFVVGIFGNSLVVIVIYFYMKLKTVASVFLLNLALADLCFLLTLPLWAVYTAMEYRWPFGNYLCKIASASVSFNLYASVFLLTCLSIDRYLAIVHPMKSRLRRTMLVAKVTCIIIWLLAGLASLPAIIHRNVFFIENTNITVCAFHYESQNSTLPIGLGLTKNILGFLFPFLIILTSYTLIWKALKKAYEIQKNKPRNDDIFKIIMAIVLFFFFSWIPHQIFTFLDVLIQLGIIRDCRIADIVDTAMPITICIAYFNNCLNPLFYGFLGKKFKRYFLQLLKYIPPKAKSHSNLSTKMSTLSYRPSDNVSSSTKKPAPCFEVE
# Vero = test: mammalian cell viability reduction – secondary assay, cytotoxicity control for West Nile virus antiviral project, dose response (AID 1650); type: functional; conditions: Chlorocebus sabaeus
# [21] = biological target: T3, Sphingosine 1-phosphate receptor 4; test: Late stage fluorescence dose response cell-based screening assay for antagonists of the Sphingosine 1-Phosphate Receptor 4 (S1P4). [Related pubchem assays: 1524 (Confirmation screen (S1P4 antagonists).), 1510 (Primary screen (S1P4 antagonists).), 1853 (Summary AID (S1P4 antagonists).), 1692 (Dose response screen (S1P4 antagonists).)]; type: functional
# [22] = biological target: Kappa-type opioid receptor (Homo sapiens, UniProt P41145); type: functional
# Chain of Kappa-type opioid receptor (P41145 whole entry): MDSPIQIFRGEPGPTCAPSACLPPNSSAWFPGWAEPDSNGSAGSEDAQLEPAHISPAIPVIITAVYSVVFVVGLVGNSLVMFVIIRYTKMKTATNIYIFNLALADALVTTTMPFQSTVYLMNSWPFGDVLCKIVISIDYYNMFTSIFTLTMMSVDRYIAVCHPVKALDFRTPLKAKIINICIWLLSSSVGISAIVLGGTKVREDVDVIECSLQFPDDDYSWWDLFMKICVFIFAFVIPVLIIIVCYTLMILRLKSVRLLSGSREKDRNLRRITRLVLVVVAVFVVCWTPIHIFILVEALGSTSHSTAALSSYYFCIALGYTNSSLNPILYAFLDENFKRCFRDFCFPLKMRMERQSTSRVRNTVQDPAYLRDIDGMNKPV
# Mu-type opioid receptor = Mu-type opioid receptor (Homo sapiens, UniProt P35372); test: HTS Image-Based Screen for Agonists of the MOR Receptor. [Related pubchem assays (depositor defined):AID1777, AID1785, AID1786, AID2133]; type: functional;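 note: imaging of beta-arrestin GFP recruitment into spots after receptor activation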
# Chain of Mu-type opioid receptor (P35372 whole entry): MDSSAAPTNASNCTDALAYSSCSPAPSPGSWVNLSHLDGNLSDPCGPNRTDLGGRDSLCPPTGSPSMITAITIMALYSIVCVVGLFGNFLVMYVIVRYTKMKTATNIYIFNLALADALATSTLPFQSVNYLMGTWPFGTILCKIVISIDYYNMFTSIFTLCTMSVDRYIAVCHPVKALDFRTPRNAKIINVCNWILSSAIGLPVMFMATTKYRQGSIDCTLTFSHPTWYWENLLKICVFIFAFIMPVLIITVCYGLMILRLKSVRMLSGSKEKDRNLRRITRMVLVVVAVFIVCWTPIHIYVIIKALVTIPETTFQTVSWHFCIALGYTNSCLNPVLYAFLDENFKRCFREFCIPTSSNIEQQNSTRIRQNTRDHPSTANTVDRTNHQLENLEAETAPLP
# HEK293 [23] = test: SAR Analysis of small molecule inhibitors of both B-cell and T-cell specific antigen receptor-induced NF-kB activation in a HEK-293T cell line using a luminescence assay. [Related pubchem assays (depositor defined):AID435003, AID435022, AID465, AID489019, AID489029]; type: functional, cell-based; conditions: Homo sapiens
# A-375 [24] = test: MITF: Counter assay: A375 proliferation Measured in Cell-Based System Using Plate Reader - 2084-03_Inhibitor_Dose_DryPowder_Activity. [Related pubchem assays (depositor defined):AID488944]; type: functional; conditions: Homo sapiens
# [25] = viability of HCT116 lacking mutant beta-catenin – cell-based, human colon tumor, dose response (AID 1045); type: functional;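 note: HCT116 colon tumor cells with beta catenin knocked out; cells exposed to compound for 60 hours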
# [26] = biological target: Latent membrane protein 1 (Human herpesvirus 4 (strain B95-8), UniProt P03230); test: LMP1 TES1 pathway selectivity over dsRED control – imaging, HEK293T, dual-color eGFP/dsRED, cherry-picks, selectivity assay for LMP1 NF-kB inhibitor project, dose response (AID 588398); type: functional, cell-based
# Chain of Latent membrane protein 1 (P03230 whole entry): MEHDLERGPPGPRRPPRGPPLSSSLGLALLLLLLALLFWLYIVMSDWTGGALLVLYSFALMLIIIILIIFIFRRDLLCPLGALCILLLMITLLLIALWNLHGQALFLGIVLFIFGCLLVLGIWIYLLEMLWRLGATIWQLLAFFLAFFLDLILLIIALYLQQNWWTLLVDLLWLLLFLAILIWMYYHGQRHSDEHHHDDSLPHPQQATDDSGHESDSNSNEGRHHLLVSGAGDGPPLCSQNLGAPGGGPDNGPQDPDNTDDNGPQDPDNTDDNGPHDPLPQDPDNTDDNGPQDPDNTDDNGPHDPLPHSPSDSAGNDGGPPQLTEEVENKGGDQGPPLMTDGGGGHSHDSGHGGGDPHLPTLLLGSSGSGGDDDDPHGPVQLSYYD
# [27] = biological target: Heat shock protein HSP 90-alpha (Homo sapiens, UniProt P07900); type: functional, organism-based
# CHO = CHO cell viability loss, potency – luminescence, cytotoxicity control for TLR9-MyD88 binding inhibitor project, dose response (AID 588339); type: functional, cell-based, hamster; conditions: Cricetulus griseus;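 note: CHO cells stably coexpressing TLR9 and MyD88 fusions from primary screen; compound exposure lasted 48 hours before viability readout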
# Beta Lactamase = Beta Lactamase (Pseudomonas aeruginosa, UniProt Q932Y6); test: BLA reporter interference, concentration series – BLA reporter cells, FRET fluorescence, artefact control for TLR9-MyD88 binding inhibitor project, dose response (AID 588341); type: cell-based;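 note: cell based assay in CHO-K1 cells stably expressing beta-lactamase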
# Chain of Beta Lactamase (Q932Y6 whole entry): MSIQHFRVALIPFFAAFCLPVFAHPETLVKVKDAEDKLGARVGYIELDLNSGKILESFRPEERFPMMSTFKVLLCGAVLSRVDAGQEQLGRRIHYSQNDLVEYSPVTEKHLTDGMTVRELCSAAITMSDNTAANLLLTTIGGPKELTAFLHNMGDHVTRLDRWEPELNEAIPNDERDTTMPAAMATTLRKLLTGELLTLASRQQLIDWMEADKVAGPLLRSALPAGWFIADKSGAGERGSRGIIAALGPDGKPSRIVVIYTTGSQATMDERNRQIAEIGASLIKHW
# T1 sequence (O43614 whole entry): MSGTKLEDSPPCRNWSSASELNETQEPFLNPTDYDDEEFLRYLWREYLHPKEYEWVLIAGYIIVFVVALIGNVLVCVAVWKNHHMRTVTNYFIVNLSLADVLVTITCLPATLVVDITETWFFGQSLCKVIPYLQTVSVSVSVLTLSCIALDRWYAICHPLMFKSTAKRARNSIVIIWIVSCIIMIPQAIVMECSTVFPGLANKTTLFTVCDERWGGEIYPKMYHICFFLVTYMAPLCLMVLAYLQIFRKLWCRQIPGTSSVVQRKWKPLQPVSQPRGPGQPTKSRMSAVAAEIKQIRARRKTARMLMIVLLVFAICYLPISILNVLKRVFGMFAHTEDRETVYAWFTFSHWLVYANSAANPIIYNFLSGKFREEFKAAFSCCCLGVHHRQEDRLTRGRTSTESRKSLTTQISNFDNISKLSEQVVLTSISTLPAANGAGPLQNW
structure (smiles),measurement,setting,value
CN1C(=O)C2(N=c3ccccc3=N2)c2ccccc21,IC50,Orexin receptor type 2 [1],> 88.8 µM (inactive)
same,IC50,[2],13.8 µM (inactive)
same,IC50,Orexin receptor type 2 [3],> 50 µM (inactive)
same,EC50,[4],79.5 µM (active)
same,IC50,[5],> 49.7 µM (inactive)
same,IC50,CHO-K1,> 66.2 µM (inactive)
same,IC50,[6],3.22 µM (active)
same,EC50,[7],> 120 µM (not active)
same,EC50,[8],> 120 µM (not active)
Cc1ccc(S(=O)(=O)Nc2cccc3cccnc23)cc1,IC50,[9],0.63 µM (active)
same,IC50,HEK293 [10],56.8 µM (inactive)
same,EC50,[11],> 32 µM (inactive)
same,EC50,Beta-galactosidase [12],> 40 µM (inactive)
same,IC50,[13],1.84 µM (active)
same,EC50,[4],13.7 µM (active)
same,AC50,[14],5.55 µM (active)
same,AC50,A-375 [15],> 35 µM (active)
same,EC50,[16],2.84 µM (active)
same,EC50,Beta-galactosidase [17],> 31.5 µM (inactive)
same,IC50,[18],1.42 µM (active)
same,IC50,[19],> 32 µM (inactive)
same,EC50,[7],15.2 µM (active)
same,IC50,Jurkat,1.06 µM (active)
same,IC50,[20],3.67 µM (active)
same,CC50,Vero,6.89 µM (active)
same,IC50,[21],0.55 µM (active)
same,IC50,[22],2.57 µM (active)
same,EC50,[8],11.5 µM (active)
same,EC50,Mu-type opioid receptor,> 32 µM (inactive)
same,IC50,HEK293 [23],18.1 µM (active)
same,AC50,A-375 [24],> 35 µM (active)
same,EC50,[25],2.5 µM (active)
OCCN(CCO)CC(O)COCCC12CC3CC(CC(C3)C1)C2 (configuration not stated),AC50,[26],77.6 µM (active)
O=C(c1ccccc1)c1cc(Cl)ccc1N1C(=O)C=CC1=O,AC50,[27],0.552 µM (active)
same,AC50,[14],11.9 µM (active)
same,IC50,CHO,2.26 µM (active)
same,IC50,Beta Lactamase,14.7 µM (inactive)
